Data reported in patent publication US9309224B2 (Deciphera Pharmaceuticals, LLC, priority 2013, dated 2016).

Tests used:
c-FMS = assay: cFOS mRNA production in a c-FMS mouse spleen pharmacodynamic model; format: in vivo; details: out to 8 h post 30 mg/kg single oral dose, read-out: inhibition of cFOS mRNA levels
Description: Analysis of cFOS mRNA Production in a c-FMS Mouse Spleen Pharmacodynamic Model To examine the in vivo modulation of FMS activity by compounds of formula I, spleen samples from female DBA/1 mice were collected and analyzed for M-CSF stimulated production of cFOS mRNA. Briefly, six to seven week old female Taconic DBA/1BO J Bom Tac mice were treated with a single oral dose (by gavage) of either vehicle or compound. Plasma and spleen samples are collected from four mice at each timepoint 2, 4, 6, 8, 12, 18, and 24 hours after dosing. Fifteen minutes prior to euthanasia, all mice were injected IV with 1 μg (100 μL fixed volume) of M-CSF. M-CSF, Recombinant Mouse Macrophage Colony Stimulating Factor (36.4 kDa homodimer, ≧98% purity) was obtained from Gibco. All procedures carried out in this experiment were conducted in compliance with all the laws, regulations and guidelines of the National Institutes of Health (NIH). cFOS mRNA levels in spleen extracts were determined using a quantitative reverse transcriptase PCR kit from Life Technologies. Plasma levels of FMS inhibitors were determined by mass spectrometer analysis. The degree of FMS inhibition was correlative to the amount of decrease observed in cFOS mRNA levels in the spleen samples of treated animals compared to vehicle.

[1] = target: T1, phospho-FMS in THP-1 cells (Homo sapiens, UniProt P07333); assay: Phospho-FMS ELISA assay in THP-1 cells; format: cell-based; details: 4 hours compound, M-CSF stimulated; read-out: pFMS inhibition in THP-1 cells
T1 construct: endogenous in cells; host or cells: THP-1 (ATCC TIB-202)
T1 sequence (P07333 20-972): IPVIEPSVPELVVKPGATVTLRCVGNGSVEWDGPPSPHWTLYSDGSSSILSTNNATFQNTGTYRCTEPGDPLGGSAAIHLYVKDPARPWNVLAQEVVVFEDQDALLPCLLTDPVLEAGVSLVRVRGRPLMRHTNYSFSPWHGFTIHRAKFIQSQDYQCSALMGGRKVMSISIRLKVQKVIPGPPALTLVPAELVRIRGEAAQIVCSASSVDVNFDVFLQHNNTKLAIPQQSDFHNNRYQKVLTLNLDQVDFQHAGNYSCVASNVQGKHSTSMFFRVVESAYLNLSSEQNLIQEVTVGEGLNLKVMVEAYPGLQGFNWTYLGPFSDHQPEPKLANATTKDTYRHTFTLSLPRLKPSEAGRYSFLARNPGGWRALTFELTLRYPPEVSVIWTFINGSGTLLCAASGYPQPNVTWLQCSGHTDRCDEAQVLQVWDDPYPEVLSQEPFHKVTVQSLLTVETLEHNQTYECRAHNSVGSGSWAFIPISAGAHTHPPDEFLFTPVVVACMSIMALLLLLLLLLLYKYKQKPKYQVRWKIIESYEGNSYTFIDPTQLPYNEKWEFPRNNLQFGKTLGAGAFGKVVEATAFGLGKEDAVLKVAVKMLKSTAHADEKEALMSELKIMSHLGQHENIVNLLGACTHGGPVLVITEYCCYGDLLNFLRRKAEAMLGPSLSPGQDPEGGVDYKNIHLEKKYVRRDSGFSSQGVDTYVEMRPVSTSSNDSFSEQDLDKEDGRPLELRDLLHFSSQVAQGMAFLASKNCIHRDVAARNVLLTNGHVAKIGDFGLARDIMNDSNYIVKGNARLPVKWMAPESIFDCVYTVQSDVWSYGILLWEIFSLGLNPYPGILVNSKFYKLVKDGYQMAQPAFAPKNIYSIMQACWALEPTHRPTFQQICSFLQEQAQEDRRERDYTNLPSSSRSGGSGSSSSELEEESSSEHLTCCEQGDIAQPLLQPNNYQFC
Description: In a separate 96 well black clear bottom plate, one hundred and fifty thousand THP-1 cells were added per well in 100 μL in assay medium. Fifty microliters of diluted compound was then added to the cells. […] Lysates were prepared and used to perform the phospho-FMS ELISA as described by the manufacturer (catalog #DYC3268, R & D Systems, Minneapolis, Minn.). GraphPad Prism was used to calculate IC50 values obtained from data generated from the ELISA assay.

[2] = tested on: U251-luc human glioma carcinoma; assay: U251 intra-cerebro-ventricular implant in mice with fractionated head radiation; format: in vivo, mouse; details: 30 mg/kg twice daily, 10 days post irradiation, compared to vehicle treated control
Description: U251 Intra-Cerebro-Ventricular Implant in Mice To evaluate in vivo anti-cancer activity compounds of formula I in combination with fractionated, localized head radiation, an orthotopic U251-luc (Luc) human glioma carcinoma model in female outbred nu/nu mice was employed. Briefly, U251 cells were obtained from the ATCC and altered to be luciferase expressing. They were grown in RPMI 1640 Media supplemented with 10% FBS and 1% PSG. The growth environment was maintained in an incubator with a 5% CO2 atmosphere at 37° C. Female Harlan Nude mice (Hsd:AthymicNude-Fox1nu) 8-9 weeks old were used in this study. Test animals were implanted intracranially with U251-luc (LucmCherry) cells. Briefly, animals were injected subcutaneously with 5 mg/kg carprofen and anesthetized using 2% isoflurane in air. The animals were then secured in a stereotaxic frame (ASIinstruments, Inc.) and a hole drilled 2 mm right lateral, 1 mm anterior to the coronal suture. The cell suspension (stored on wet ice) was mixed thoroughly and drawn up into a 50 μL syringe. The syringe needle was centered over the burr hole and lowered 3 mm into the brain and retracted 1 mm to form a “reservoir” for the deposition of the cell suspension. […] Images were analyzed using Living Image (Xenogen, Alameda, Calif.) software. The BLI signal in the brain was calculated with a fixed area ROI to estimate the tumor burden. […]

IC50 [1]: < 10 nM
Compound: CN1CCN(C(=O)Nc2cc(Oc3ccc(NC(=O)NC(=O)C(C)(C)C)nc3)ccn2)CC1 [Example 45, 4-methyl-N-(4-((6-(3-pivaloylureido)pyridin-3-yl)oxy)pyridin-2-yl)piperazine-1-carboxamide]
inhibition in vivo at 30 mg/kg (c-FMS): ≥ 50% | reduction in tumor re-growth [2]: 80%
